Source: ChEMBL document CHEMBL1129040, “Inhibitors of acyl CoA:cholesterol acyltransferase” (J Med Chem, 1996)

Experiments:
[1] = biological target: T1, Sterol O-acyltransferase 1 (Rattus norvegicus) (UniProt O70536); test: In vitro inhibitory activity against acyl-coenzyme A:cholesterol acyltransferase 1 from rat hepatic microsomes at 10 uM
T1 sequence (whole entry): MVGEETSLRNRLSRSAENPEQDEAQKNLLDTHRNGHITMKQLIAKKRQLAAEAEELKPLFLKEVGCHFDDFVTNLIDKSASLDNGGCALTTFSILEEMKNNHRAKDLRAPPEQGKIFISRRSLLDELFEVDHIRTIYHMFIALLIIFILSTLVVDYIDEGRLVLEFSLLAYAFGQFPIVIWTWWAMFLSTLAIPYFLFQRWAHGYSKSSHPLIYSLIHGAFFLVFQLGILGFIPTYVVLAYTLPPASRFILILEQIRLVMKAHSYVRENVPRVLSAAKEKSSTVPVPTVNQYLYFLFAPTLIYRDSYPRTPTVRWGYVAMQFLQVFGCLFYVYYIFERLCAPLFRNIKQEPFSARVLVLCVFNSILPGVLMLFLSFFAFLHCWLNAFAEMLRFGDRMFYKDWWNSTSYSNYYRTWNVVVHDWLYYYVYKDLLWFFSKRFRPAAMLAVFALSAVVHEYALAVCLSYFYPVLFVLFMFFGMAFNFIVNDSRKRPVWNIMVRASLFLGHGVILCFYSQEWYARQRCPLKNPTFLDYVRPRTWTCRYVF

[2] = biological target: T2, Sterol O-acyltransferase 1 (Rattus norvegicus, UniProt O70536); test: In vitro inhibitory activity against acyl-coenzyme A:cholesterol acyltransferase 1 from rat hepatic microsomes.
T2 sequence (O70536 whole entry): T1 sequence (whole entry)

Cricetinae gen. sp. [3] = test: In vivo activity to reduce liver cholesterol esters (hamster) at 50 mpk; format: functional, Cricetulus griseus
[4] = biological target: T2, Sterol O-acyltransferase 1; test: (§1) In vitro inhibitory activity against Acyl coenzyme A:cholesterol acyltransferase 1 from rat hepatic microsomes at 10 uM
Cricetinae gen. sp. [5] = test: In vivo activity to reduce liver cholesterol esters (hamster) at 1 mg/kg/day; format: functional, Cricetulus griseus
Cricetinae gen. sp. [6] = test: In vivo activity to reduce liver cholesterol esters (hamster) at 5 mg/kg/day; format: functional, Cricetulus griseus
[7] = biological target: T1, Sterol O-acyltransferase 1 (Rattus norvegicus); test: as §1

Compound	inhibition [1]	IC50 [2]	Reduction (Cricetinae gen. sp. [3])	also measured
O=C(N[C@H]1c2ccccc2CC[C@@H]1c1ccccc1O)C(c1ccccc1)c1ccccc1			0%	
COc1ccc([C@H]2CCc3ccccc3[C@@H]2NC(=O)C(c2ccccc2)c2ccccc2)cc1			0%	
O=C(NC1c2ccccc2CC1c1ccc(O)cc1)C(c1ccccc1)c1ccccc1 (racemic)				IC50 [4]: 0.1 µM; Reduction (Cricetinae gen. sp. [5]): 27%; Reduction (Cricetinae gen. sp. [6]): 63%
O=C(NC(Cc1ccc(O)cc1)c1cccc(O)c1)C(c1ccccc1)c1ccccc1 (stereo not given)			0%	
COc1ccc([C@H]2CCc3ccccc3[C@H]2NC(=O)C(c2ccccc2)c2ccccc2)cc1			0%	
O=C(N[C@@H]1c2cccc(O)c2CC[C@@H]1c1ccccc1)C(c1ccccc1)c1ccccc1			0%	
COc1cccc([C@H]2CCc3ccccc3[C@@H]2NC(=O)C(c2ccccc2)c2ccccc2)c1			0%	
O=C(N[C@H]1c2ccccc2OC[C@@H]1c1ccc(O)cc1)C(c1ccccc1)c1ccccc1			0%	
O=C(N[C@H]1c2cccc(O)c2CC[C@@H]1c1ccccc1)C(c1ccccc1)c1ccccc1			0%	
COc1ccc2c(c1)C(NC(=O)C(c1ccccc1)c1ccccc1)CCC2 (stereo not given)			0%	
O=C(N[C@@H]1c2c(O)cccc2CC[C@@H]1c1ccccc1)C(c1ccccc1)c1ccccc1			20%	
O=C(N[C@@H]1c2cc(O)ccc2CC[C@@H]1c1ccc(O)cc1)C(c1ccccc1)c1ccccc1			0%	
O=C(NC(Cc1ccccc1)c1cccc(O)c1)C(c1ccccc1)c1ccccc1 (stereo not given)			19%	
O=C(N[C@H]1c2ccccc2CC[C@@H]1c1ccc(O)cc1)C(c1ccccc1)c1ccccc1	93%	0.7 µM	58%	
O=C(N[C@@H]1c2ccccc2CCC[C@@H]1c1ccc(O)cc1)C(c1ccccc1)c1ccccc1			0%	
O=C(N[C@@H]1c2ccccc2CC[C@@H]1c1ccncc1)C(c1ccccc1)c1ccccc1			39%	
COc1ccccc1[C@H]1CCc2ccccc2[C@H]1NC(=O)C(c1ccccc1)c1ccccc1 (stereo in doubt; trans)			0%	
COc1ccc([C@H]2CCc3ccc(OC)cc3[C@H]2NC(=O)C(c2ccccc2)c2ccccc2)cc1			0%	
O=C(N[C@H]1c2ccccc2CCC[C@@H]1c1ccc(O)cc1)C(c1ccccc1)c1ccccc1			61%	
O=C(N[C@H]1c2ccccc2C[C@H]1c1ccc(O)cc1)C(c1ccccc1)c1ccccc1				IC50 [4]: 13 µM; Reduction (Cricetinae gen. sp. [5]): 0%; Reduction (Cricetinae gen. sp. [6]): 0%
O=C(NC(Cc1ccc(O)cc1)c1ccc(O)cc1)C(c1ccccc1)c1ccccc1 (stereo not given)			40%	
COc1cccc([C@H]2CCc3ccccc3[C@H]2NC(=O)C(c2ccccc2)c2ccccc2)c1			0%	
O=C(N[C@H]1CCCC[C@@H]1c1ccc(O)cc1)C(c1ccccc1)c1ccccc1	94%	0.6 µM	0%	
O=C(N[C@@H]1c2ccccc2CC[C@@H]1c1cccc(O)c1)C(c1ccccc1)c1ccccc1	77%	1.8 µM	0%	
Nc1ccc([C@H]2CCc3ccccc3[C@H]2NC(=O)C(c2ccccc2)c2ccccc2)cc1			57%	
O=C(N[C@@H]1c2ccccc2OC[C@@H]1c1ccc(O)cc1)C(c1ccccc1)c1ccccc1			0%	
O=C(NC1CCCc2ccccc21)C(c1ccccc1)c1ccccc1 (stereo not given)				inhibition [7]: 37%

Now from value to molecule, other results behind:

inhibition [1]	IC50 [2]	Compound	Reduction (Cricetinae gen. sp. [3])	also measured
80%	3 µM	O=C(N[C@@H]1CCCC[C@@H]1c1ccc(O)cc1)C(c1ccccc1)c1ccccc1	0%	
95%		O=C(NC(Cc1ccccc1)c1ccc(O)cc1)C(c1ccccc1)c1ccccc1 (stereo not given)	69%	
100%	0.1 µM	COc1ccc([C@H]2CCCC[C@@H]2NC(=O)C(c2ccccc2)c2ccccc2)cc1	0%	
40%		COc1ccc(CC(NC(=O)C(c2ccccc2)c2ccccc2)c2ccc(OC)cc2)cc1 (stereo not given)	32%	
87%	0.9 µM	O=C(N[C@@H]1c2ccc(O)cc2CC[C@@H]1c1ccccc1)C(c1ccccc1)c1ccccc1	45%	
94%	1.3 µM	O=C(N[C@H]1c2cc(O)ccc2CC[C@@H]1c1ccccc1)C(c1ccccc1)c1ccccc1	78%	
98%	0.7 µM	O=C(N[C@H]1c2ccccc2CC[C@@H]1c1cccc(O)c1)C(c1ccccc1)c1ccccc1	0%	
92%		O=C(NC(Cc1ccc(O)cc1)c1ccccc1)C(c1ccccc1)c1ccccc1 (stereo not given)		
92%		COc1ccc(CC(NC(=O)C(c2ccccc2)c2ccccc2)c2ccccc2)cc1 (stereo not given)	65%	
99%	0.23 µM	O=C(N[C@H]1c2ccccc2C[C@@H]1c1ccc(O)cc1)C(c1ccccc1)c1ccccc1	52%	
99%	0.1 µM	O=C(N[C@@H]1c2ccccc2C[C@@H]1c1ccc(O)cc1)C(c1ccccc1)c1ccccc1	91%	IC50 [4]: 0.04 µM; Reduction (Cricetinae gen. sp. [5]): 73%; Reduction (Cricetinae gen. sp. [6]): 88%
84%	2.4 µM	O=C(N[C@@H]1c2cc(O)ccc2CC[C@@H]1c1ccccc1)C(c1ccccc1)c1ccccc1	38%	
98%	0.4 µM	COc1ccc2c(c1)[C@H](NC(=O)C(c1ccccc1)c1ccccc1)[C@@H](c1ccc(O)cc1)CC2	97%	
92%	0.9 µM	O=C(N[C@H]1c2ccc(O)cc2CC[C@@H]1c1ccccc1)C(c1ccccc1)c1ccccc1	0%	
77%	3 µM	COc1ccc([C@H]2CCCC[C@H]2NC(=O)C(c2ccccc2)c2ccccc2)cc1	20%	
91%	0.35 µM	O=C(N[C@@H]1c2ccccc2CC[C@@H]1c1ccc(O)cc1)C(c1ccccc1)c1ccccc1	16%	
88%		COc1ccc(C(Cc2ccccc2)NC(=O)C(c2ccccc2)c2ccccc2)cc1 (stereo not given)	69%	
